In ChEMBL document CHEMBL1201862, “PubChem BioAssay data set” (2004):
Calls of active or inactive are those of the source.

Experiments:
[1] = blockers of HIV-1 envelope-mediated cell-cell fusion – cherry-pick, dose response (AID 652057); assay type: functional, cell-based
[2] = blockers of HIV-1 ZM109 envelope-driven cell-cell fusion – HeLa effector, CEM target cells, luciferase, cherry-pick, dose response (AID 652058); assay type: functional, cell-based;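 also: luciferase signal from HIV-1 Env mediated cell-cell fusion of effector and target cells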
[3] = HIV-1 AD8 envelope cell-cell fusion blockers – cherry-pick, dose response (AID 652062); assay type: functional, cell-based;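 also: luciferase signal from cell-cell fusion driven by HIV-1 clade B AD8 Env; potency is for inhibitors of fusion seen as a drop in luminescence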
Caspase-3 = target: T1, Caspase-3 (Homo sapiens, UniProt P42574); assay type: functional;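 also: Dose-response selectivity test against caspase-3 for candidate inhibitors of sentrin-specific proteases (SENPs)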
T1 sequence (P42574 whole entry): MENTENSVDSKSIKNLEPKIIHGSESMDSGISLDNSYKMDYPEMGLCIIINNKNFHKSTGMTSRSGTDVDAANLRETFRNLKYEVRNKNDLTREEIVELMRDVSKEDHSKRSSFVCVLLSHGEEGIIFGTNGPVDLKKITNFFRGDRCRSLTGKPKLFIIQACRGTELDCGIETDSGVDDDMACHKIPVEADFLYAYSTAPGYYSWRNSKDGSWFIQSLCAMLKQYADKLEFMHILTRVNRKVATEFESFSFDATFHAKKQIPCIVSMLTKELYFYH

[4] = target: T2, Sentrin-specific protease 7 (Homo sapiens, UniProt Q9BQF6); assay type: functional;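 also: Luminescence-based dose-response confirmation of ultra-high-throughput screening hits, measuring inhibition of SENP7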
T2 sequence (Q9BQF6 whole entry): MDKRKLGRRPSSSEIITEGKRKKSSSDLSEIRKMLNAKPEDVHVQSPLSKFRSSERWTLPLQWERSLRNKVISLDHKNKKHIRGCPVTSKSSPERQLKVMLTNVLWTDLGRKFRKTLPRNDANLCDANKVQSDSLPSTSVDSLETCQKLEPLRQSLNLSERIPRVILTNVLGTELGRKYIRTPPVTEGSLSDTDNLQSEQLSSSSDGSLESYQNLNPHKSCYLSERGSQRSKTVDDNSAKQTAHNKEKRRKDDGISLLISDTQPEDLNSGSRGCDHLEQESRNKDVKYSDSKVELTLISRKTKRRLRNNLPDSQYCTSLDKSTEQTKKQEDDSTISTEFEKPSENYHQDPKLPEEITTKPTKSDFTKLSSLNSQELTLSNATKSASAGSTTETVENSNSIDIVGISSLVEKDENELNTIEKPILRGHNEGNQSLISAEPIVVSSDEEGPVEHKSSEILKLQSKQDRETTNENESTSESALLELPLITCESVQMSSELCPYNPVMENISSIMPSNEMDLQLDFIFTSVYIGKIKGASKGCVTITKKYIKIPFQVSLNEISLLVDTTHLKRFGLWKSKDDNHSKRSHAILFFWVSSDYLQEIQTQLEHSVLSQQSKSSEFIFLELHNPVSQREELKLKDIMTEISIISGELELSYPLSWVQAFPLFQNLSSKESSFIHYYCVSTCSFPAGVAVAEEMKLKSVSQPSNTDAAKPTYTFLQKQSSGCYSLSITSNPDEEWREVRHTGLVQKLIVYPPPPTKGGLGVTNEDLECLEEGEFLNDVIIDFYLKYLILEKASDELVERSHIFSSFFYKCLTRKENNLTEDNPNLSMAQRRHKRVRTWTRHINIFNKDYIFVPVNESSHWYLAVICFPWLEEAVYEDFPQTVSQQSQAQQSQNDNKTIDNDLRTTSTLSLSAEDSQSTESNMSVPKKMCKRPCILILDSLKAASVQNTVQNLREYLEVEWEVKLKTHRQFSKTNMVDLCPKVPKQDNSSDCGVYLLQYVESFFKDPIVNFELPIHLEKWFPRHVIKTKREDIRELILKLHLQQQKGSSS

[5] = target: T3, Sentrin-specific protease 6 (Homo sapiens, UniProt Q9GZR1); assay type: functional;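 also: Luminescence-based dose-response confirmatory assay of SENP6 inhibition, following up an ultra-high-throughput screen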
T3 sequence (Q9GZR1 whole entry): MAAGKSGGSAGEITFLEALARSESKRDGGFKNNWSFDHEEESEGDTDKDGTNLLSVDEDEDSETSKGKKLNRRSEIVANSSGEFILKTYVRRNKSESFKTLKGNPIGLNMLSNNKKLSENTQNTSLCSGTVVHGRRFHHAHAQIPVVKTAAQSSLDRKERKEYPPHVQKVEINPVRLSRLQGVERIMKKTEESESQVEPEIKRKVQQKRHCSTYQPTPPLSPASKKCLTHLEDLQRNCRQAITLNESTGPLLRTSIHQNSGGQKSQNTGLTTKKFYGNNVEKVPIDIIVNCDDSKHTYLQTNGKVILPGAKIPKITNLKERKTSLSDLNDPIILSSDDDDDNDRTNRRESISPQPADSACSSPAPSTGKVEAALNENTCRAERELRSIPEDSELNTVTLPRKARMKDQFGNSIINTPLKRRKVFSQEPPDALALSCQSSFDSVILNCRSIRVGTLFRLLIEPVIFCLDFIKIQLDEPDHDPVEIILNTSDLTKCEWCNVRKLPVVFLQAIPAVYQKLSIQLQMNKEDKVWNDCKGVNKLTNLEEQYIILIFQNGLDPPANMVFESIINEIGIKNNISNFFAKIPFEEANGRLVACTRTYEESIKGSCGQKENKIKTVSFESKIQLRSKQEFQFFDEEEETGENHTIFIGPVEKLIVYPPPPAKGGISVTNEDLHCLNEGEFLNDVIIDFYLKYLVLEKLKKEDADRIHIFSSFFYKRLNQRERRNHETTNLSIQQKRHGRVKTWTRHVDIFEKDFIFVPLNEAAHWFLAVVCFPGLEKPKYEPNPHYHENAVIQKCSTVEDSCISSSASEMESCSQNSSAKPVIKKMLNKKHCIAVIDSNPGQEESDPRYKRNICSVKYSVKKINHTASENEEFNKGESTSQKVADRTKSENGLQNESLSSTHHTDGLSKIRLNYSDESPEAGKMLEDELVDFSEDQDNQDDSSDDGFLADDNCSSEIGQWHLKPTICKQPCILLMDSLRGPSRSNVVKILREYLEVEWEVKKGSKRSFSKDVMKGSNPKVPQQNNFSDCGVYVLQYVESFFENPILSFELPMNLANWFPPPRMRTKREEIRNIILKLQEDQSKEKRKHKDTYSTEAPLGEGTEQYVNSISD

[6] = target: T4, Sentrin-specific protease 8 (Homo sapiens, UniProt Q96LD8); assay type: functional;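 also: luminescence read-out of SENP8 inhibition, dose-response confirmation following an ultra-high-throughput screen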
T4 sequence (Q96LD8 whole entry): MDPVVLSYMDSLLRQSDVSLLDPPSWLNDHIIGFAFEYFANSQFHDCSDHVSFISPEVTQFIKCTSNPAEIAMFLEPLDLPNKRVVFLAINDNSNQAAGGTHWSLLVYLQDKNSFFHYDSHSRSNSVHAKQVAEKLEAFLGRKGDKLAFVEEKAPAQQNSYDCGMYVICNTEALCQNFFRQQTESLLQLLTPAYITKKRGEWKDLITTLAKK

[7] = viability of PTEN-deleted HCT116 cells – cell-based, HCT116 PTEN knockout, dose response (AID 1047); assay type: functional;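 also: HCT116 colon tumor cells with PTEN knocked out; cells exposed to compound for 60 hours before readout; potency for loss of cell viability measured by luminescence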
[8] = viability of HCT116 lacking mutant beta-catenin – cell-based, human colon tumor, dose response (AID 1045); assay type: functional;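 also: HCT116 colon tumor cells with beta catenin knocked out; cells exposed to compound for 60 hours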
[9] = THP-1 cell cytotoxicity, dose response, cytotoxicity control for non-replicating M. tuberculosis project (AID 489025); assay type: functional
[10] = Luminescence Cell-Based Dose Retest to Confirm Inhibitors of Cancer Stem Cells. [Related pubchem assays (depositor defined):AID2717, AID2721]; assay type: functional; conditions: Homo sapiens
cells = assay type: functional
[11] = intracellular Trypanosoma cruzi inhibitors in host cells – cell-based, plate reader, cherry-pick samples, set 3, dose response (AID 651818); assay type: functional;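 also: compounds incubated with infected cells for about four days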
Nonstructural protein 1 = Nonstructural protein 1 (Influenza A virus, UniProt Q194T2); assay type: functional, Influenza A virus (A/California/07/2009(H1N1))
Chain of Nonstructural protein 1 (Q194T2 whole entry): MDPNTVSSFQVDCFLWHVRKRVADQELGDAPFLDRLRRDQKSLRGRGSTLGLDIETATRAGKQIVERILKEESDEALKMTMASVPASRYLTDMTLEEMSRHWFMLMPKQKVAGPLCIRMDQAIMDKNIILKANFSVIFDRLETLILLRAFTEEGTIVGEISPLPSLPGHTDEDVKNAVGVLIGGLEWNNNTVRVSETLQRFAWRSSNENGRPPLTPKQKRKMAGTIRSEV

[12] = target: T5, Rac GTPase-activating protein 1 (Homo sapiens, UniProt Q9H0H5); experiment: blockers of MgcRacGAP-driven Rac1 GTP hydrolysis – biochemical, ADP Hunter fluorescence, primary and confirmatory, confirmation (AID 624330); assay type: functional
T5 sequence (Q9H0H5 whole entry): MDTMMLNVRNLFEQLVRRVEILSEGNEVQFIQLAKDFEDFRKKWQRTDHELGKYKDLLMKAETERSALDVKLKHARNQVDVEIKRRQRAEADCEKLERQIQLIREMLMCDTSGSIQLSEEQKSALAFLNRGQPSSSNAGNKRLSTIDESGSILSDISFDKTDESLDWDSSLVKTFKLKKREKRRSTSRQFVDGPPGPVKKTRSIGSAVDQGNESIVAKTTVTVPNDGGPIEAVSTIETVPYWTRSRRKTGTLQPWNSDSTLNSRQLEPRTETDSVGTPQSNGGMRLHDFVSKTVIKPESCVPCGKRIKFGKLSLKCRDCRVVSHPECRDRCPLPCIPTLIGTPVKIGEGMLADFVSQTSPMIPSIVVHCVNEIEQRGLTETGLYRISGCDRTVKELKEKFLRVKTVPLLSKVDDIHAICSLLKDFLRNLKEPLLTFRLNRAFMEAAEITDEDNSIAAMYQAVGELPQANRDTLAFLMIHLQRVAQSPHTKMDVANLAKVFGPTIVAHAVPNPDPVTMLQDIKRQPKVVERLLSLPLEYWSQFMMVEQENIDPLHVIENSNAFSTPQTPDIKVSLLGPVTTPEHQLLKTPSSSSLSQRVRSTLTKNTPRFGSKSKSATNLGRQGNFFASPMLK

HEK293 [13] = experiment: inhibition of NOD1-driven NF-kB reporter – cell-based, luminescence, uHTS, primary screen (AID 1578); assay type: functional; conditions: Homo sapiens
HEK293 [14] = experiment: cells; assay type: functional, cell-based; conditions: Homo sapiens
HEK293 [15] = experiment: cells; assay type: functional, cell-based; conditions: Homo sapiens; remark: listed apart in the source
HEK293 [16] = experiment: NOD2 signaling inhibitors in MDP-stimulated cells, cell-based, uHTS, luminescence (AID 2001); assay type: functional; conditions: Homo sapiens
[17] = Luminescence Cell-Based Dose Confirmation HTS to Identify Activators of 5'UTR Stem-Loop Driven Alpha-Synuclein mRNA Translation in H4 Neuroglioblastoma Cells. [Related pubchem assays: 1829 (Project Summary), 1814 (Primary HTS)]; assay type: functional
[18] = Luminescence Cell-Based Dose Response HTS to Identify Activators of Luciferase Translation or Activity in H4 […] Cells. [Related pubchem assays: 1829 (Project Summary), 1814 (Primary HTS)]; assay type: functional
H4 = experiment: Luminescence Cell-Based Dose Response HTS to Identify Activators of 5'UTR Stem-Loop Driven Prion Protein mRNA Translation in H4 Neuroglioblastoma Cells. [Related pubchem assays: 1829 (Project Summary), 1814 (Primary HTS)]; assay type: functional; conditions: Homo sapiens

Row | Compound | IC50 (Caspase-3) | IC50 [4] | IC50 [5] | IC50 [6] | AC50 [11] | further results
1 | O=C(NNS(=O)(=O)c1ccc(F)cc1F)C1Cc2c(ccc3ccccc23)O1 (configuration not stated) | – | – | – | – | – | AC50 [1]: 8.04 µM (active); AC50 [2]: 37.5 µM (active); AC50 [3]: 24.2 µM (active)
2 | O=[N+]([O-])c1nn(-c2ccc3c(c2)OCCO3)[n+]([O-])c1NCc1ccccc1Cl | > 100 µM (inactive) | 3.36 µM (active) | > 100 µM (inactive) | > 100 µM (inactive) | – | –
3 | Clc1ccc(OCc2nc(-c3ccncc3)no2)c(Cl)c1 | 38.8 µM (active) | 9.12 µM (active) | 28.8 µM (active) | 36.6 µM (active) | – | –
4 | CCOC(=O)c1c(NC(=O)C2COc3ccccc3O2)sc2c1CC(C)(C)NC2(C)C (configuration not stated) | – | – | – | – | – | EC50 [7]: 10.6 µM (active); EC50 [8]: 10.3 µM (active); CC50 [9]: 25.3 µM (active); AC50 [10]: 8.55 µM (active); IC50 (cells): 36.2 µM (active)
5 | C[C@@H]1CN([C@H](C)CO)C(=O)Cc2cc(NS(=O)(=O)c3ccccc3)ccc2O[C@@H]1CN(C)Cc1ccc(Cl)c(Cl)c1 | – | – | – | – | 3.52 µM (active) | –
6 | C[C@@H]1CN([C@@H](C)CO)C(=O)c2cccc(NC(=O)c3nc4ccccc4s3)c2O[C@H]1CN(C)Cc1ccc2c(c1)OCO2 | – | – | – | – | 1.78 µM (active) | –
7 | O=C(Nc1ccccc1Cl)Nc1cccc2cccnc12 | 29.4 µM (active) | 7.41 µM (active) | > 100 µM (inactive) | 6.08 µM (active) | – | –
8 | CN(c1ccccc1)c1ccc(/C=N/N2CCOCC2)cc1 | 18.8 µM (active) | 8.89 µM (active) | 27.3 µM (active) | 39.5 µM (active) | – | IC50 (Nonstructural protein 1): > 100 µM (active); IC50 [12]: 37.2 µM (active)
9 | C[C@H]1CN([C@@H](C)CO)C(=O)c2cccc(NC(=O)c3ccc(-c4nccs4)cc3)c2O[C@H]1CN(C)Cc1ccc(C(=O)Nc2ccccc2N)cc1 | – | – | – | – | 1.49 µM (active) | –
10 | C[C@H](CO)N1C[C@H](C)[C@H](CN(C)Cc2ccc(Cl)c(Cl)c2)Oc2c(NC(=O)c3ccc(-c4nccs4)cc3)cccc2C1=O | – | – | – | – | 4.5 µM (active) | –
11 | COc1ccc(-c2nc3ccccc3c(=O)[nH]2)cc1 | 6.83 µM (active) | 6.89 µM (active) | 17.3 µM (active) | > 100 µM (inactive) | – | –
12 | CC1(C)C=C2[C@H]3CC[C@@H]4[C@@]5(C)CCC(=O)C(C)(C)[C@@H]5CC[C@@]4(C)[C@]3(C)CC[C@@]2(C(=O)O)CC1 [MORONIC ACID] | – | – | – | – | – | EC50 (HEK293 [13]): 2.27 µM (active); IC50 (HEK293 [14]): 10.9 µM (active); IC50 (HEK293 [15]): 15.7 µM (active); IC50 (HEK293 [16]): 8.08 µM (active); AC50 [10]: 3.35 µM (active)
13 | CCc1ccc(-c2csc(NC(=O)C3=COCCO3)n2)cc1 | 38.6 µM (active) | 6.81 µM (active) | 27 µM (active) | 48.5 µM (active) | – | –
14 | Cc1cccc(C(=O)n2c(=S)nc3cc(C)ccn32)c1 | 87.3 µM (active) | 11 µM (active) | 86.4 µM (active) | > 100 µM (inactive) | – | –
15 | S=C(NNc1ccc2ccccc2c1)NC1CCCCC1 | – | – | – | – | – | EC50 [17]: 42.1 µM (active); EC50 [18]: 30.4 µM (active); EC50 (H4): 9.85 µM (active); IC50 (Nonstructural protein 1): > 100 µM (active)
16 | COc1ccc(NC(=O)Nc2ccc3c(c2)C(=O)N([C@H](C)CO)C[C@H](C)[C@@H](CN(C)CC2CCCCC2)OCCCC[C@@H](C)O3)cc1 | – | – | – | – | 3.41 µM (active) | –
